Data on 11 molecules can be found in patent US4324801A, “Phenylguanidine acetylsalicylate compounds, process for production thereof, and pharmaceutical composition thereof” (Banyu Pharmaceutical Co. Ltd., priority 1981, dated 1982).

One series relates to rats. As to the kind of experiment: Antipyretic activity (peptone-induced rise in rectal temperature). Format: in vivo, rat (male). The note with it: against the control, oral, 200 mg/kg, rat; 5% peponte s.c. (0.5 ml/100 g).
The test system of another series is guinea pigs. Put plainly: Anti-inflammatory activity (ultraviolet irradiation on the back of guinea pigs). Format: in vivo, guinea pig (male). The text has this:
Male guinea pigs having a body weight of about 350 g were used. The back hair of each guinea pig was removed, and ultraviolet light was irradiated onto the back.

The test system of another series is prostaglandin synthesis. As to the kind of experiment: Inhibition of prostaglandin synthesis in washed platelet suspension (malondialdehyde formation after arachidonic acid). As to conditions: in vitro; for IC50: read-out: IC50 (final concentration at 50% inhibition of malondialdehyde formation). Format: cell-based. Here is the method: Each of the compounds shown in Table 1 was tested to measure the inhibition of prostaglandin synthesis in a washed platelet suspension by measuring the malondialdehyde formation following the addition of arachidonic acid in vitro.

The nature of a further series: in vivo. The note with it: mouse, po.
Series [1] has as its system platelet aggregation in rabbit's platelet-rich plasma (PRP). As to the kind of experiment: cells. It is filed as cell-based. The note with it: collagen as aggregation inducer; for IC50: Oryctolagus cuniculus, Platelet, read-out: IC50 (final concentration at 50% inhibition of platelet aggregation). On the procedure:
This was measured by the method of Born et al. Specifically, using collagen as an aggregation inducer, each of the compounds shown in Table 1 was tested to measure the inhibition of platelet aggregation in rabbit's platelet-rich plasma (PRP). Aspirin and mefenamic acid were used as controls.
^(*) Final concentration at 50% inhibition of platelet aggregation.

Series [2] relates to mice. The note with it: oral.
Series [3] has as its system mice. As to the kind of experiment: Analgesic activity (acetic acid writhing method). Format: in vivo, mouse (male). The note with it: oral, intravenous, intraperitoneal, compared against aspirin and mefenamic acid, writhings counted 5 to 25 minutes after acetic acid. On the procedure:
The analgesic activity was tested by the acetic acid writhing method. Male mice having a body weight of 18 to 20 g were used. Each of the compounds shown in Table 1 was administered orally, intravenously and intraperitoneally, and then 0.2 ml of a 0.7% aqueous solution of acetic acid was administered intraperitoneally 60 minutes (in oral administration), 10 minutes (in intravenous administration), and 15 minutes (in intraperitoneal administration) after the administration of the test compounds.

The mark [4] stands for this setting: oral, one hour before UV irradiation, guinea pigs.

Values after ≈ are worked out from the molar mass of the structure shown. Like-named read-outs stand apart in the source and are kept apart here.

Excerpt for rats: Male rats having a body weight of 200 to 250 g were used.
^(*) Inhibiting ratio against the control in oral administration at a

In the case of `CC(=O)Oc1ccccc1C(=O)O` [Aspirin, acetylsalicylic acid, reference compound], in the series on rats, the Inhibiting ratio is 81.0%. Also, the ED50 – broadly, the dose that gives a 50% effect, or the effect in half of the subjects – in the series with guinea pigs (Cavia porcellus, light or radiation study, po, 1 h) is 90 mg/kg. Also, the IC50 amounted to 2.4 mg/L (≈ 13.3 µM) with prostaglandin synthesis and 12.6 mg/L (≈ 69.9 µM) in series [1]. Moreover, the LD50 – broadly, the dose at which mortality reaches 50% – in “in vivo” worked out at 950 mg/kg.
As for “2-methylphenylguanidine acetylsalicylate [Compound 2]”, in the series on rats, the Inhibiting ratio was determined as 88.1%. Also, the 50% effective dose (ED50) in the series on guinea pigs (setting [4]) is 65 mg/kg. For the same molecule, the LD50 with mice [2] is 400 mg/kg. The “IC50 (final concentration at 50% inhibition of malondialdehyde formation)” value in the series on prostaglandin synthesis worked out at 3.4 mg/L. Also, in series [1], the “IC50 (final concentration at 50% inhibition of platelet aggregation)” value was found to be 10.5 mg/L.
Turning to “4-Methoxyphenylguanidine acetylsalicylate [Compound 11]”, in the series with rats, the Inhibiting ratio is given as 25.2%. In the series with guinea pigs (setting [4]), this molecule registered an ED50 of 95 mg/kg. Besides, the LD50 in the series with mice [2] was 300 mg/kg. Also, in the series on prostaglandin synthesis, the “IC50 (final concentration at 50% inhibition of malondialdehyde formation)” value came out at 3.3 mg/L. In addition, the “IC50 (final concentration at 50% inhibition of platelet aggregation)” value in series [1] stood at 9.6 mg/L.
On the same counts, the results for “3-methylphenylguanidine acetylsalicylate [Compound 3]” are 28.0%, 110 mg/kg, 400 mg/kg, 3.7 mg/L and 7.0 mg/L.
For the molecule “4-methylphenylguanidine acetylsalicylate [Compound 4]”, the Inhibiting ratio in the series with rats came out at 83.9%. Also, the ED50 in the series on guinea pigs (setting [4]) came out at 90 mg/kg. In the series with mice [2], this molecule had an LD50 of 600 mg/kg. In the series with prostaglandin synthesis, the “IC50 (final concentration at 50% inhibition of malondialdehyde formation)” value turned out to be 2.4 mg/L. Also, the “IC50 (final concentration at 50% inhibition of platelet aggregation)” value in series [1] was found to be 4.5 mg/L.
“3,4-dimethylphenylguanidine acetylsalicylate [Compound 5]” returned an ED50 in the series on guinea pigs (setting [4]) of 85 mg/kg. Further, the analgesic activity entry in the series on mice [3] is on record as “a marked analgesic activity”. In addition, in the series with prostaglandin synthesis, the “IC50 (final concentration at 50% inhibition of malondialdehyde formation)” value came out at 4.8 mg/L. Further, in series [1], the “IC50 (final concentration at 50% inhibition of platelet aggregation)” value was determined as 2.0 mg/L.
“4-ethoxyphenylguanidine acetylsalicylate [Compound 13]”: the Inhibiting ratio with rats came to 62.9%. For the same molecule, the ED50 with guinea pigs (setting [4]) is recorded as 85 mg/kg. In addition, in the series with mice [2], the LD50 was determined as 600 mg/kg. The “IC50 (final concentration at 50% inhibition of malondialdehyde formation)” value in the series with prostaglandin synthesis was 4.0 mg/L. Further, in series [1], the “IC50 (final concentration at 50% inhibition of platelet aggregation)” value was determined as 12.2 mg/L.
As to `CC(=O)Oc1ccccc1C(=O)O.N=C(N)Nc1ccccc1` [Compound 1], in the series on rats, the Inhibiting ratio is on record as 74.1%. This molecule gave an ED50 in the series on guinea pigs (setting [4]) of 140 mg/kg. The molecule also yielded an LD50 in the series on mice [2] of 400 mg/kg. Besides, the “IC50 (final concentration at 50% inhibition of malondialdehyde formation)” value with prostaglandin synthesis came out at 4.3 mg/L. Besides, in series [1], the “IC50 (final concentration at 50% inhibition of platelet aggregation)” value was 6.0 mg/L.
Consider “3-Hydroxy-4-carboethoxyphenylguanidine acetylsalicylate [Compound 17]”, for which, in the series on mice [2], the LD50 turned out to be 1100 mg/kg.
Take `Cc1cccc(Nc2ccccc2C(=O)O)c1C` [Mefenamic acid, reference compound]: in the series with guinea pigs (Cavia porcellus, light or radiation study, 1 h, oral, one hour before UV irradiation, guinea pigs, read-out: ED50), the ED50 stood at 30 mg/kg. In addition, the IC50 with prostaglandin synthesis is 1.4 mg/L (≈ 5.8 µM); in series [1], over 20 mg/L.
“4-Carbamoylphenylguanidine acetylsalicylate [Compound 16]”: in the series with rats, the Inhibiting ratio was determined as 72.0%. The ED50 in the series with guinea pigs (setting [4]) amounted to 200 mg/kg. Also, the LD50 in the series on mice [2] was 1600 mg/kg. The “IC50 (final concentration at 50% inhibition of malondialdehyde formation)” value with prostaglandin synthesis worked out at 4.5 mg/L. For the same molecule, the “IC50 (final concentration at 50% inhibition of platelet aggregation)” value in series [1] was determined as 12.5 mg/L.
